In patent publication US20210223230A1, “Neamine Compositions and Methods of Use Thereof” (President and Fellows of Harvard College, priority 2008, published 2021):
Values joined by “and” are separate entries in the source; they are usually repeats but may differ in a detail not shown here. Identical values can stand only once. “Also recorded” adds a separate entry of the source. Like-named read-outs stand apart in the source and are kept apart here.

Legend:
ANG [1] = test: Nuclear translocation of ANG; format: cell-based; conditions: inhibitors tested
[2] = test system: PC-3 human prostate cancer cells; conditions: nude mice, literature; cited from earlier work
ANG [3] = conditions: literature reports; cited from earlier work
established PIN = test: Reversal of established PIN in 12-week-old MPAKT mice; format: in vivo; conditions: for AKT expression and phosphorylation (IHC) / established PIN phenotype (H&E) / rRNA transcription / 47S rRNA level (ISH): daily i.p. 4 weeks from week 12; for apoptotic index: neomycin 10 mg/kg, N65828 4 mg/kg daily i.p. 4 weeks from week 12, control 0.95±0.11
AKT-induced PIN = test: Prevention of AKT-induced PIN in 4-week-old MPAKT mice by small-molecule ANG inhibitors; conditions: for 47S rRNA level / transcription (ISH) / AKT phosphorylation (IHC) / localization of ANG in prostate epithelial cells (IHC) / PIN formation (H&E): daily i.p. 4 weeks from week 4; for PIN formation (H&E): neamine, neomycin 10 mg/kg, N65828 4 mg/kg
[4] = in vivo; cited from earlier work
[5] = test system: PC-3 human prostate cancer cells; test: Xenograft growth of PC-3 cell tumors in athymic mice; format: in vivo
Description: Male athymic mice were inoculated with 5×10^5 of PC-3 cells, and treated sub-cutaneously (s.c.) with PBS or neamine at a dose of 30 mg/kg body weight twice weekly for 8 weeks. Twelve mice were used per group. (A) Mice were examined by palpation for tumor appearance. (B) Tumor sizes were measured with a caliper and were expressed as length×width^2. At day 56, mice were sacrificed and tumor tissues were removed, photographed (C) and weighed (D).
Xenograft growth of PC-3 cell tumors. Five-week-old male athymic mice were inoculated s.c. with 100 μl of a mixture containing 5×10^5 PC-3 cells and 33 μl of Matrigel. The mice were treated s.c. with PBS or neamine (30 mg/kg) twice weekly for 8 weeks. Tumor sizes were measured every 3 days and recorded in mm^3 (Length×width^2). Mice were sacrificed at day 56 and the tumors were removed and the wet weights of the PC-3 tumors were recorded.

[6] = test system: MDA-MB-435 human breast cancer cells; conditions: cited from earlier work
PC-3 cell tumor tissues = test: IHC and ISH of PC-3 xenograft tumor tissues (ANG localization, 47S rRNA, PCNA, vWF); format: in vivo, athymic mice
Description: PBS- and neamine-treated tumor tissues were fixed in formalin, embedded in paraffin, and sections of […] were cut. (A) Localization of ANG was determined by IHC with anti-human ANG monoclonal antibody 26-2F. […] (C) Proliferating cells were stained with an anti-PCNA monoclonal antibody (mAb). PCNA positive and total numbers of cells were counted in 5 randomly selected areas at 200× magnification. (D) Blood vessels were stained with an anti-vWF antibody and counted in five most vascularized areas at 200× magnification.

[7] = cited from earlier work
[8] = Adverse side effects in the treated mice of these studies; format: in vivo; conditions: 30 mg/kg s.c. and 10 mg/kg i.p.
[9] = Acute LD50 (subcutaneous) in mice; format: in vivo
[10] = test system: HT-29 human colon adenocarcinoma; conditions: cited from earlier work
angiogenesis = conditions: literature reports; cited from earlier work
ANG [11] = target: ANG (Homo sapiens, UniProt P03950); conditions: screen of 18,310 compounds; cited from earlier work
[12] = mouse, in vivo, sc; cited from earlier work
LNCaP cells = test: LNCaP cell proliferation in phenol red-free and steroid-free medium; format: cell-based, human; conditions: ANG 0.1 μg/ml, DHT 10 nM
Description: (a) ANG stimulates LNCaP cell proliferation in the absence of androgens. Cells were culture in phenol red-free and charcoal/dextran-stripped (steroid-free) FBS for 2 day and stimulated with DHT (10 nM), ANG (0.1 μg/ml), or a mixture of the two for the time indicated. (b) Dose dependence. ANG was added to the cells and cultured for 4 days. (c) Anti-ANG mAb 26-2F inhibits DHT-induced cell proliferation. LNCaP cells were stimulated with 10 nM DHT in the presence of 26-2F or a control non-immune IgG for 3 days. (d) ANG over-expression promotes LNCaP proliferation in vitro. The vector control (pCI-Neo) and ANG transfectants (pCI-ANG) were cultured in phenol red-free and steroid-free medium for the time indicated. (e) Xenograft growth in castrated SCID mice. A mixture of 70 μl cell suspension (1×10^6 cells) and 30 μl Matrigel was injected s.c. per mouse (8 per group). The mice were castrated or sham-operated at the same time. Tumors were inspected and measured twice a week and the animals were sacrificed after 8 weeks of observation. (f) Endogenous ANG of LNCaP cells is essential for androgen-induced rRNA transcription. LNCaP cells were cultured in phenol red-free and steroid-free medium and incubated with DHT (10 nM), ANG (0.1 μg/ml), anti-ANG mAb 26-2F (60 μg/ml) or a mixture of DHT and 26-2F for 2 h. […]

Sequence of ANG (Homo sapiens, UniProt P03950) (P03950 25-147): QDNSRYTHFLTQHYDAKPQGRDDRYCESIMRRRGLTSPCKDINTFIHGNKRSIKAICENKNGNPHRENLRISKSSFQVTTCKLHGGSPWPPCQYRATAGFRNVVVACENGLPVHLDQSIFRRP

Molecule: COc1ccc2c(c1)CC[C@@H]1[C@@H]2CC[C@]2(C)[C@@H](NCCCCCCN3C(=O)CCC3=O)CC[C@@H]12 [U-73343]
- effect on nuclear translocation of ANG (ANG [1]): only marginally block

Molecule: neomycin
- xenograft growth of PC-3 cells [2]: inhibit
- effect on nuclear translocation of ANG (ANG [3]): blocks
- AKT expression and phosphorylation (IHC) (established PIN): not different from that of the control group
- established PIN phenotype (H&E) (established PIN): reversed
- rRNA transcription / 47S rRNA level (ISH) (established PIN): dramatically decreased
- apoptotic index (established PIN): 1.95±0.19 caspase 3 positive cells per duct
- luminal cell size (established PIN; neomycin 4 weeks from week 12): restored cell size to normal
- size of the ventral prostate of a representative mouse (established PIN; neomycin 4 weeks from week 12, control 69.8): 44.3 mm^3
- 47S rRNA level / transcription (ISH) (AKT-induced PIN): inhibited
- AKT phosphorylation (IHC) (AKT-induced PIN): not altered
- localization of ANG in prostate epithelial cells (IHC) (AKT-induced PIN): extracellular
- PIN formation (H&E) (AKT-induced PIN): prevented PIN formation
- renal cortical levels relative to circulating levels in serum [4]: ≤ 20 times

Molecule: NC[C@H]1O[C@H](O[C@H]2[C@H](O)[C@@H](O)[C@H](N)C[C@@H]2N)[C@H](N)[C@@H](O)[C@@H]1O [neamine]
- inhibition of tumor growth ([5]; day 56, from tumor weight vs control): 72.5%
- average tumor weight ([5]; day 56, neamine 30 mg/kg s.c. twice weekly, control 620±310): 170 ± 50 mg
- tumor growth rate in animals that did develop tumors ([5]; neamine 30 mg/kg s.c. twice weekly): decreased significantly
- animals in which tumor establishment was prevented ([5]; neamine 30 mg/kg s.c. twice weekly for 8 weeks, n=12): 50%
- animals with palpable tumors at day 20 ([5]; neamine 30 mg/kg s.c. twice weekly, day 20): 5 of the 12
- xenograft growth [6]: inhibits
- effect on nuclear translocation of ANG (ANG [3]): comparable activity
- AKT expression and phosphorylation (IHC) (established PIN): not affected
- established PIN phenotype (H&E) (established PIN): shrank established PIN
- rRNA transcription / 47S rRNA level (ISH) (established PIN): inhibited
- apoptotic index (TUNEL) (established PIN; neamine 10 mg/kg daily i.p. 4 weeks from week 12, untreated 0.89±0.12): 2.15±0.17 per duct
- mice with PIN regression (established PIN; neamine 10 mg/kg daily i.p. 4 weeks, 12 mice): all 12
- percentage of glands having PIN (established PIN; neamine 10 mg/kg daily i.p. 4 weeks, before/control 95.2±3.2): 33% and 33.4±5.2%
- decrease in cell proliferation (PC-3 cell tumor tissues; from PCNA positive cells vs control): 66%
- decrease in tumor angiogenesis (PC-3 cell tumor tissues; from vessel density vs control): 72.8%
- PCNA positive cells (PC-3 cell tumor tissues; neamine-treated PC-3 tumors, control 75.4±6): 25.6±6.4%
- vessel density (vWF) (PC-3 cell tumor tissues; neamine-treated PC-3 tumors, control 82±3.2): 22.3±9.6 vessels per mm^2
- localization of ANG in tumor cells (IHC, 26-2F) (PC-3 cell tumor tissues; neamine-treated PC-3 tumors, nuclear in untreated): most of the ANG is extracellular
- 47S rRNA level (ISH) (PC-3 cell tumor tissues; neamine-treated vs control tumor tissues): decreased significantly
- 47S rRNA level / transcription (ISH) (AKT-induced PIN): decreased dramatically
- AKT phosphorylation (IHC) (AKT-induced PIN): did not differ from those of controls
- localization of ANG in prostate epithelial cells (IHC) (AKT-induced PIN): predominantly cytoplasmic and extracellular
- PIN formation (H&E) (AKT-induced PIN): inhibited PIN formation
- vessel density (CD31) in ventral prostate (AKT-induced PIN; neamine 10 mg/kg daily 4 weeks, control 11.5±4.5): 4±0.5 per mm^2
- Ki-67 positive cells (AKT-induced PIN; neamine 10 mg/kg daily 4 weeks, untreated PIN 61.1±9.3): 24.9±8.4%
- percentage of PIN in the ventral prostate (AKT-induced PIN; neamine 10 mg/kg daily i.p. 4 weeks from week 4, control 95.1±4.3): 39.6±1.4%
- nephrotoxicity relative to that of neomycin ([7]; cell and organ culture): ~5%
- ototoxicity relative to that of neomycin ([7]; cell and organ culture): ~6%
- toxicity relative to neomycin (fold less toxic) ([7]; toxicity profile): close to that of streptomycin and kanamycin
- acute or chronic adverse side effects [8]: No acute or chronic adverse side effects; also recorded: not observed
- fold by which the 30 mg/kg dose is lower than the reported LD50 ([9]; 30 mg/kg s.c. vs LD50 1250 mg/kg): 42 fold
- fold by which LD50 is higher than the highest scheduled dose ([9]; LD50 1,250 mg/kg vs 160 mg/kg): 7.8 fold
- xenograft growth [10]: inhibits
- anti-angiogenic activity (angiogenesis): equally effective

Molecule: Nc1ccc(N=Nc2ccc(-c3ccc(O)cc3)cc2)c2ccc(S(=O)(=O)O)cc12 [N65828, 8-amino-5-(4′-hydroxybiphenyl-4-ylazo)naphthalene-2-sulfonate]
- xenograft growth of PC-3 cells [2]: inhibit
- AKT expression and phosphorylation (IHC) (established PIN): not different from that of the control group
- established PIN phenotype (H&E) (established PIN): reversed
- rRNA transcription / 47S rRNA level (ISH) (established PIN): dramatically decreased
- apoptotic index (established PIN): 2.02±0.21 caspase 3 positive cells per duct
- 47S rRNA level / transcription (ISH) (AKT-induced PIN): inhibited
- AKT phosphorylation (IHC) (AKT-induced PIN): not altered
- localization of ANG in prostate epithelial cells (IHC) (AKT-induced PIN): remained strongly in the nucleus
- PIN formation (H&E) (AKT-induced PIN): prevented PIN formation
- selectivity of enzymatic inhibition, ANG vs RNase A (ANG [11]): preferentially inhibited

Molecule: [H]/N=C(/N)N[C@H]1[C@H](O)[C@@H](O)[C@H](O[C@@H]2O[C@@H](C)[C@](O)(C=O)[C@H]2O[C@@H]2O[C@@H](CO)[C@H](O)[C@@H](O)[C@@H]2NC)[C@@H](N/C(N)=N\[H])[C@@H]1O [streptomycin]
- effect on nuclear translocation of ANG (ANG [3]): do not block
- acute LD50 (subcutaneous) in mice [12]: 600 mg/kg
- anti-angiogenic activity (angiogenesis): not anti-angiogenic

Molecule: O=c1c(-c2ccc(O)cc2)coc2cc(O)cc(O)c12 [Genistein]
- effect on nuclear translocation of ANG (ANG [1]): no detectable effect

Molecule: C[C@]12CCC(=O)C[C@@H]1CC[C@@H]1[C@@H]2CC[C@]2(C)[C@@H](O)CC[C@@H]12 [DHT, dihydrotestosterone, reference compound]
- LNCaP cell proliferation in the absence of androgens (LNCaP cells): stimulates

Molecule: NC[C@@H]1O[C@H](O[C@H]2[C@@H](O)[C@H](O[C@@H]3[C@@H](O)[C@H](N)C[C@H](N)[C@H]3O[C@H]3O[C@H](CO)[C@@H](O)[C@H](O)[C@H]3N)O[C@@H]2CO)[C@H](N)[C@@H](O)[C@@H]1O [paromomycin]
- effect on nuclear translocation of ANG (ANG [3]): do not block
- effect on nuclear translocation of ANG (ANG [1]): does not detectably block
- anti-angiogenic activity (angiogenesis): not anti-angiogenic

Molecule: CN[C@@H]1C[C@H]2O[C@@](C)([C@@H]1OC)n1c3ccccc3c3c4c(c5c6ccccc6n2c5c31)C(=O)NC4 [staurosporine]
- effect on nuclear translocation of ANG (ANG [1]): no detectable effect

Molecule: NCC[C@H](O)C(=O)N[C@@H]1C[C@H](N)[C@@H](O[C@H]2O[C@H](CN)[C@@H](O)[C@H](O)[C@H]2O)[C@H](O)[C@H]1O[C@H]1O[C@H](CO)[C@@H](O)[C@H](N)[C@H]1O [amikacin]
- effect on nuclear translocation of ANG (ANG [3]): do not block
- anti-angiogenic activity (angiogenesis): not anti-angiogenic

Molecule: COc1ccc2c(c1)CC[C@@H]1[C@@H]2CC[C@]2(C)[C@@H](NCCCCCCN3C(=O)C=CC3=O)CC[C@@H]12 [U-73122]
- effect on nuclear translocation of ANG (ANG [1]): only marginally block

Molecule: gentamicin
- effect on nuclear translocation of ANG (ANG [3]): do not block
- anti-angiogenic activity (angiogenesis): not anti-angiogenic
